Values joined by “and” are separate entries in the source; they are usually repeats but may differ in a detail not shown here. Equal entries are not always repeated. After the bases stand the sugars from the 5' end (letter, count) and the backbone: PS all phosphorothioate, else s phosphorothioate and o phosphodiester by linkage. Methylation of C is not given here. e = 2'-O-(2-methoxyethyl) (MOE); k = constrained ethyl (cEt); d = 2'-deoxy (DNA)
Target: APOL1
Conditions: ASO

Sequence	target mRNA inhibition (A431, 0.0156 µM) [%]	target mRNA inhibition (A431, 0.0625 µM)	target mRNA inhibition (A431, 0.25 µM)	target mRNA inhibition (A431, 1 µM)	target mRNA inhibition (A431, 2 µM) [%]	target mRNA inhibition (A431, 0.04 µM) [%]
GCATTCAGAATTTCCA (sugars k3 d4 k3 e1 d5, PS)	33	73%	90%	92%	95	
TTCTATTAGAGGGCTA (sugars k2 d4 e4 k2 d4, PS)					76	
GTTTTGTAAGTGCAAC (sugars kkddddkekekkdddd, PS)					62	
CCGTTCCAGGCCTCAT (sugars k4 d9 k3, PS)		48%	66%	65%		
GCAGTTTTGTAAGTGC (sugars k2 d4 e3 k2 d5, PS)					79	
AAGCTTTAAACTCAGG (sugars kkddddkekekddddd, PS)					48	
CTGTTCTAACTCTTGG (sugars k4 d9 k3, PS)		61%	79%	87%		
TTCTCATGGTACAGGA (sugars kkdddddkekeddddd, PS)					78	
GGAATTATGGAATTGC (sugars kkddddkekekddddd, PS)					82	
GTTCTAACTCTTGGGC (sugars k3 d4 k3 e1 d5, PS)					58	
AAGTATTGCCAGCTAA (sugars k2 d4 e3 k2 d5, PS)					63	
AGATTGGCTCTGGCTC (sugars kddddkekekeddddd, PS)					23	
GTTCTAACTCTTGGGC (sugars kkkddddkdkdkdddd, PS)					73	
CTTTATACCAGTGTCT (sugars kekddddeekkddddd, PS)	22	41%	69%	89%	95	
GAGTATTGTTTTTGTG (sugars kkddddkdkdkddddd, PS)	17	34%	70%	88%	92	
TCAGTCAGCAGGAGTA (sugars k4 d9 k3, PS)		55%	69%	70%		
GAGCGATTGTCTTGTT (sugars k4 d9 k3, PS)		62% and 83%	85% and 92%	92% and 95%		
GTGTTATATTTGATCC (sugars kkddddkekekddddd, PS)					78	
ACACATCATTGGGTTA (sugars kkkddddkdkdkdddd, PS)					48	
ATATCAGATGGGTACT (sugars kkddddekekeddddd, PS)					27	
GTTTCATATTCACCCG (sugars k4 d9 k3, PS)		82%	92%	97%		
ACACATCATTGGGTTA (sugars kkddddkekekkdddd, PS)					20	
CCGTCAATATATTCTT (sugars k3 d4 k3 e1 d5, PS)	36	70%	92%	96%	98	
TTTGTAAGTGCAACCA (sugars kkkddddkekeddddd, PS)					49	
TTTCATATTCACCCGA (sugars k4 d9 k3, PS)		46%	68%	86%		
TACATTTGGAGATCTG (sugars k4 d9 k3, PS)		61%	80%	90%		

Sequence	target mRNA inhibition (A431, 0.0156 µM) [%]	target mRNA inhibition (A431, 0.0625 µM)	target mRNA inhibition (A431, 0.25 µM)	target mRNA inhibition (A431, 1 µM)	target mRNA inhibition (A431, 2 µM) [%]	target mRNA inhibition (A431, 0.04 µM) [%]
ACTTTATACCAGTGTC (sugars kkkddddkekeddddd, PS)					65	
CACATCATTGGGTTAT (sugars kkddddkekekddddd, PS)					74	
CTTTAAACTCAGGTGA (sugars kkddddkekekkdddd, PS)					70	
CATTCAGAATTTCCAC (sugars kkkddddkekeddddd, PS)					86	
AGTTTTGTAAGTGCAA (sugars kkdddddkekeddddd, PS)					92	
TGGTCACAGTTCTTGG (sugars k4 d9 k3, PS)		80%	90%	95%		
GAAGATTGGCTCTGGC (sugars kkkddddkekeddddd, PS)					75	
CTTTATACCAGTGTCT (sugars k2 d4 e3 k2 d5, PS)	12	46%	74%	92%	96	
TGTTTGCATTTGGGTC (sugars k4 d9 k3, PS)		90% and 83%	98% and 94%	99% and 96%		
GTATTTCTTGATGTGG (sugars kkddddkdkdkddddd, PS)					87	
CGTCAATATATTCTTT (sugars kkddddkekekddddd, PS)	20	41%	75%	90%	94	
ATTCTATTAGAGGGCT (sugars k3 d4 k3 e1 d5, PS)					85	
TGGGAATTATGGAATT (sugars kkddddekekeddddd, PS)					78	
GCTAATTTTCTGACTG (sugars kekddddeekkddddd, PS)	13	42%	69%	87%	94	
AATTCTATTAGAGGGC (sugars kkddddekekeddddd, PS)					79	
GGAATTATGGAATTGC (sugars kekddddeekkddddd, PS)	23	63%	90%	97%	98	
AGGTTTGGATGGAAGG (sugars k4 d9 k3, PS)		36%	73%	88%		
GATGTGTTTAGGCATT (sugars k4 d9 k3, PS)			71% and 83%	90% and 91%		
GGAATTATGGAATTGC (sugars k4 d9 k3, PS)		74%	93%	98%		55
GTTCTAACTCTTGGGC (sugars kkdddddkekeddddd, PS)					84	
TCTGTTAGATACAAAC (sugars k4 d9 k3, PS)		34%	63%	78%		
CGCAATGCTGACTTGG (sugars kkddddkdkdkddddd, PS)					94	
TTTGTAAGTGCAACCA (sugars kkddddekekeddddd, PS)	29	59%	83%	96%	97	
GCTAATTTTCTGACTG (sugars kkddddkekekkdddd, PS)					71	
TTACATGCACGATCTC (sugars k3 d10 k3, PS)		18%	56%	78%		
GATTTTCCAACAAGGT (sugars k4 d9 k3, PS)		54%	80%	92%		

Sequence	target mRNA inhibition (A431, 0.0156 µM) [%]	target mRNA inhibition (A431, 0.0625 µM)	target mRNA inhibition (A431, 0.25 µM)	target mRNA inhibition (A431, 1 µM)	target mRNA inhibition (A431, 2 µM) [%]	target mRNA inhibition (A431, 0.04 µM) [%]
TCCTTGCTGCACTGCC (sugars k4 d9 k3, PS)		67%	88%	95%		
GTTATATTTGATCCTC (sugars k2 d4 e4 k2 d4, PS)					69	
ATTTCTTGATGTGGTG (sugars kddddkekekeddddd, PS)					81	
GCTTTAAACTCAGGTG (sugars k2 d4 e4 k2 d4, PS)					95	
GTTCAAAAGCAGCATT (sugars kddddkekekeddddd, PS)					33	
GTATTGCCAGCTAAGG (sugars kkddddkekekkdddd, PS)					74	
ATTCTATTAGAGGGCT (sugars kkdddddkekeddddd, PS)					78	
CATTCAGAATTTCCAC (sugars k4 d9 k3, PS)		56%	81%	90% and 81%		15
AACGCAATGCTGACTT (sugars kkkddddkekeddddd, PS)					83	
CAGTTTTGTAAGTGCA (sugars kkkddddkekekdddd, PS)					87	
TCTATTAGAGGGCTAG (sugars kddddkekekeddddd, PS)					37	
TGTTATATTTGATCCT (sugars kkkddddkekeddddd, PS)					71	
TGAAGATTGGCTCTGG (sugars k3 d4 k3 e1 d5, PS)					61	
CAGATGGGTACTTCTG (sugars kddddkekekeddddd, PS)					23	
TATCAGATGGGTACTT (sugars kkkddddkekeddddd, PS)					37	
CTTCTGTTAGATACAA (sugars k4 d9 k3, PS)		46%	73%	90%		
CTGTTCTAACTCTTGG (sugars kkddddkekekddddd, PS)					88	
TATTTCTTGATGTGGT (sugars kkkddddkekekdddd, PS)	17	61%	80%	89%	95	
GTTATATTTGATCCTC (sugars k3 d5 k3 d5, PS)		86%	93%	99%	100	
CACTTTACATGCACGA (sugars kkdddddddddkekek, PS)	21	38%	69%	89%		
AGAACTCAAGTCAGTA (sugars k4 d9 k3, PS)		38% and 62%	67% and 83%	86% and 88%		
GTTATATTTGATCCTC (sugars kkkddddkdkdkdddd, PS)					92	
AAGATTGGCTCTGGCT (sugars kkddddekekeddddd, PS)					66	
ATTCAGAATTTCCACT (sugars kkddddkekekddddd, PS)					76	

— the OligoGym collection
